Experimental data from ChEMBL document CHEMBL1268913, “Carbocycles related to oseltamivir as influenza virus group-1-specific neuraminidase inhibitors. Binding to N1 enzymes in the context of virus-like particles” (J Med Chem, 2010).

Test system: unidentified influenza virus
Assay: Antiviral activity against avian influenza virus H5N1
Type: functional, organism-based

SMILES	EC50
CCC(O)c1cn([C@H]2C=C(C(=O)O)O[C@@H]([C@H](O)[C@H](O)CO)[C@@H]2NC(C)=O)nn1 (some centres not stated)	6.4 µM

Target: Neuraminidase (Influenza A virus, UniProt B4URF0)
Assay: Inhibition of influenza A nuraminidase N1

Sequence of Neuraminidase (B4URF0 whole entry): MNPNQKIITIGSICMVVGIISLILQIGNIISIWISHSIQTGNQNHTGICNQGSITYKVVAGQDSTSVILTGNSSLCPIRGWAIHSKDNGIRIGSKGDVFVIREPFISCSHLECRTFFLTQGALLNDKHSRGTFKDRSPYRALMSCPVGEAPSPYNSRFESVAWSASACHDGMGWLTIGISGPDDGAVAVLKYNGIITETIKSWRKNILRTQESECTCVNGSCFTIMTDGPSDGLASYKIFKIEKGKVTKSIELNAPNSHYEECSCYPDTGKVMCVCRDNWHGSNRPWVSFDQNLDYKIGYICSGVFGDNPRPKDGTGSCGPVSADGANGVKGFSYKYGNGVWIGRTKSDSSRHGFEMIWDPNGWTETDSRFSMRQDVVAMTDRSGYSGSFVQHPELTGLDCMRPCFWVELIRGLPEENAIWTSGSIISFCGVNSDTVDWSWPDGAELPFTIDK

SMILES	Ki	IC50
CCC(CC)O[C@@H]1CC(C(=O)O)=C[C@H](n2cc(C(C)(C)O)nn2)[C@H]1NC(C)=O	0.13 µM	
CC(=O)N[C@H]1[C@H]([C@H](O)[C@H](O)CO)OC(C(=O)O)=C[C@@H]1O [NEU5AC2EN]	5.9 µM	
CCC(CC)O[C@@H]1CC(C(=O)O)=C[C@H](n2cc(CCc3ccccc3)nn2)[C@H]1NC(C)=O	1.2 µM	
CCC(CC)O[C@@H]1CC(C(=O)O)=C[C@H](n2cc(C3(O)CCCCC3)nn2)[C@H]1NC(C)=O		4.8 µM
CCC(CC)O[C@@H]1CC(C(=O)O)C=C(n2cc(C(C)(C)O)nn2)[C@H]1NC(C)=O (mixture of isomers)	19 µM	
CCC(CC)O[C@@H]1CC(C(=O)O)=C[C@H](n2cc([C@]3(O)CC[C@H]4[C@@H]5CCc6cc(O)ccc6[C@H]5CC[C@@]43C)nn2)[C@H]1NC(C)=O	5.8 µM	
CCC(CC)O[C@@H]1CC(C(=O)O)=C[C@H](n2cc(C(O)CC)nn2)[C@H]1NC(C)=O (some centres not stated)	0.072 µM	
CCC(CC)O[C@@H]1CC(C(=O)O)=C[C@H](n2cc(CCCO)nn2)[C@H]1NC(C)=O	0.46 µM	
CCC(CC)O[C@@H]1CC(C(=O)O)=C[C@H](NC(=N)N)[C@H]1NC(C)=O	0.00046 µM	
CCC(CC)O[C@@H]1CC(C(=O)O)=C[C@H](n2cc(C3(O)CCCC3)nn2)[C@H]1NC(C)=O		11 µM
CCC(CC)O[C@@H]1CC(C(=O)O)C=C(n2cc(CCc3ccccc3)nn2)[C@H]1NC(C)=O (mixture of isomers)	60 µM	
